Data reported in patent US11331364B2, “Use for JNK inhibitor molecules for treatment of various diseases” (Xigen Inflammation Ltd., priority 2014, dated 2022).
Several values for one entry are separate records, joined by “and”; a condition that tells them apart may be missing. Identical values can stand only once. Square brackets hold non-standard residues; d marks the D form. Peptide text beside a SMILES is read from it.

How the values were obtained:
[1] = system: rat model of kidney bilateral ischemia reperfusion; assay: Kidney bilateral ischemia reperfusion, tubular histological scores, Sprague-Dawley rats; assay type: in vivo
Protocol: Male Sprague-Dawley rats weighing 200-250 g at delivery were used (Charles River Laboratories, L'Arbresle, France). Animals were delivered to the laboratory at least 5 days before the experiments during which time they were acclimatized to laboratory conditions. This study included 3 groups of 11-12 rats each, as follow:
The protocol of warm renal ischemia was similar to that previously described (Pechman K R et al., 2009). Briefly, under general anesthesia (pentobarbital; 60 mg/kg, i.p. and atropine; 1 mg/kg, i.p.), both renal pedicles were isolated and clamped for 40 minutes using atraumatic clamps. After this time, clamps were released to start reperfusion. Animals were maintained at 37° C. using a thermo-regulated system (TCAT-2LV Controller, Physitemp Instruments, Clifton, N.J., USA) during the surgery. All the animals were sacrificed 24 hours after the release of both vascular clamps (reperfusion). Sham-operated animals underwent the same surgical procedure without clamping of the kidney vessels.
XG-104 or vehicle (0.9% NaCl) were administered into the tail vein (i.v.) at the dose of 2 mg/kg twenty minutes after the release of the second vascular clamp. Intravenous administrations into the tail vein were performed using the volume of 1 mL/kg.
After sacrifice, kidneys were removed, cleaned from all connective tissue and capsule and weighted on an electronic balance (VWR, France). One kidney was transferred in formalin solution 10% (Sigma Aldrich, France) for at least 24 h and then transferred in ethanol 70% for further histological analysis performed by Histalim (Montpellier, France). Right and left kidneys were randomly chosen. Kidney samples were fixed in 10% formalin during 72 hours, transferred into 70% ethanol, then embedded in paraffin blocks by Histalim (Montpellier, France). One longitudinal section (3 to 5 µm) was made per block. Kidney sections of paraffin embedded tissue were stained by hematoxylin and eosin (H&E). All the slides were digitalized at ×20 magnitude using Nanozoomer 2.0 HT from Hamamatsu (Hamamatsu, Japan). Each tissue section was examined histologically in a blinded manner to determine if tubular changes were present. The severity of each finding was then graded as follows:
Tubular damage score consisted of either degeneration/necrosis, tubular epithelial vacuolation, regeneration (basophil tubules), and tubular cast: […]

[2] = system: acute CYP-induced cystitis in female Sprague-Dawley rats; assay: Cyclophosphamide-induced acute cystitis, intravenous treatment, visceral pain; assay type: in vivo, rat; details: 2 mg/kg, i.v.; 24 h after CYP
Protocol: The aim of the present study was to evaluate the effects of intravenous treatment with XG-104 (2 mg/kg) on urinary bladder pain in acute CYP-induced cystitis in female Sprague-Dawley rats. This preclinical model is well-used to test therapeutic approaches for the treatment of interstitial cystitis/painful bladder syndrome (IC/PBS).
Adult female Sprague-Dawley rats (Janvier Labs, Le Genest Saint Isle, France), weighing 215±20 g at the beginning of the experiments, were used. Animals were acclimatized to the laboratory conditions for at least 3 days before the start of any experiments. The animals were allocated to the following four experimental groups (n=10 animals per group):
To induce acute cystitis, a single i.p. injection of CYP at a dose of 150 mg/kg in a final volume of 5 mL/kg was performed. Control rats received physiological saline under the same experimental conditions as CYP (final volume of 5 mL/kg, i.p.).
On the day of each experiment, weight of rats was recorded.
Assessment of referred visceral pain using von Frey filaments: Standardized conditions including fixed time-of-day (a.m. to minimize the potential circadian variations in the behaviours responses) and single-experimenter testing of all animals were applied to minimize variability behavior-based pain testing. Visceral pain including allodynia and hyperalgesia was evaluated by applying to the lower abdomen, close to the urinary bladder, a set of 8 calibrated von Frey filaments of increasing forces (1, 2, 4, 6, 8, 10, 26 and 60 g) with an interstimulus interval of 5 seconds. Prior testing, the abdominal area designed for mechanical stimulation of each animal was shaved. Animals were then placed on a raised wire mesh floor under individual transparent Plexiglas box and acclimatized for at least 30 minutes before starting the von Frey test. Filaments were then applied 1-2 seconds through the mesh floor with enough strength to cause the filament to slightly bend. Each filament was tested 3 times. Care was taken to stimulate different areas within the lower abdominal region in the vicinity of the urinary bladder to avoid desensitization.
The study design differs from that of Example 24 (cf. FIG. 50 A) only in the route of administration (intravenously instead of intravesically) and the doses as specified above. Birefly, acute cystitis was induced by CYP injection (i.p.) at Do (as described above). […]

[3] = 2 mg/kg i.v. after reperfusion, 24 hours
[4] = 2 mg/kg i.v. after reperfusion, 24 hours, listed as XG-104

Compound: CC(C)C[C@H](NC(=O)[C@H](CC(N)=O)NC(=O)[C@H](CC(C)C)NC(=O)[C@@H](NC(=O)[C@@H](C)NC(=O)[C@@H]1CCCN1C(=O)[C@H](CCCNC(=N)N)NC(=O)[C@@H](CCCCN)NC(=O)[C@@H]1CCCN1C(=O)[C@H](CCCNC(=N)N)NC(=O)[C@@H](CCCNC(=N)N)NC(=O)[C@H](CCCNC(=N)N)NC(=O)[C@H](CCCNC(=N)N)NC(=O)[C@H](CCC(N)=O)NC(=O)[C@@H](CCCNC(=N)N)NC(=O)[C@H](CCCNC(=N)N)NC(=O)[C@H](CCCCN)NC(=O)[C@H](CCCCN)NC(=O)[C@H](N)CCCNC(=N)N)[C@@H](C)O)C(=O)N[C@H](Cc1ccccc1)C(N)=O [SEQ ID NO: 172, rKKRrQRRrRPkRPaTLNLf] (H-[dR]KKR[dR]QRR[dR]RP[dK]RP[dA]TLNL[dF]-NH2; N-terminus assumed)
- animals with degeneration/necrosis score of 1 [1, 3]: 1/11
- total tubular score (mean) [1, 3]: 6.00±1.26
- animals with degeneration/necrosis score of 4 [1, 4]: 1/12 and 1/11
- mean basophilic tubule score [1, 4]: 1.33±0.65 and 1.73±0.47
- mean tubular epithelial degeneration/necrosis score [1, 4]: 2.67±0.65 and 2.18±0.75
- tubular damages ([1]; 2 mg/kg i.v., vs IR/Vehicle): significant beneficial effects on tubular damages
- AUC 1-8 g (allodynia) vs vehicle [2]: significantly decreased
- AUC 8-60 g (hyperalgesia) vs vehicle [2]: significantly reduced
- nociceptive scores vs vehicle [2]: significantly decreased
- nociceptive threshold vs vehicle [2]: significantly increased
